The values below come from patent publication US20050209201A1, “Method and composition for suppression of inflammation” (Shiseido Co., Ltd., priority 2004, published 2005).

SMILES strings stand for the structures.

For assay [1], the system named is IL-8 release in ultraviolet irradiated keratinocytes. Description: Release of cytokine IL-8 in ultraviolet irradiated keratinocytes (ELISA). It counts as cell-based, human. As for the experimental part:
(§1) Commercially available keratinocytes (Kurabo) were cultured in KGM-2 medium (Kurabo) according to the manufacturer's manual. The cells were seeded in a 12-well plate at 1.5×10^5 cells/well.
(§2) The medium in the 12-well plate was discarded on the day after seeding of the cells, and 24 hours after adding 2 ml of test solution dissolved in fresh medium, the culture supernatants were collected. The IL-6, IL-8, IL-1α and TNF concentrations in the recovered supernatants were measured using a commercially available ELISA kit (R&D Systems, USA).
(§3) After discarding the medium, PBS(−) was added and UVB was irradiated at 30 or 60 mJ/cm^2. Following the irradiation, the PBS(−) was discarded, 2 ml of the medium or test solution dissolved in the medium was added, and the culture supernatants were collected after 24 hours.
Cells were exposed to ultraviolet irradiation. After 24 h, keratinocyte cell supernatants were collected and the content of IL-8 was assayed with an ELISA kit.
(In general: ELISA stands for enzyme-linked immunosorbent assay.)

Assay [2] has as its system TNFα release from keratinocytes. The assay can be described thus: ATP-induced TNFα release from keratinocytes (ELISA). Format: cell-based, human. As for the experimental part:
as §1, §2
ATP (10 μM-1 mM) dissolved in the culture medium was applied as a test solution to keratinocytes, and after 24 hours the culture supernatants were recovered and the inflammatory cytokine TNFα was assayed with an ELISA kit.

In assay [3] the test system is IL-6 release from keratinocytes. Description: ATP-induced IL-6 release from keratinocytes (ELISA). It counts as cell-based, human. The procedure: as §1, §2
ATP (10 μM-1 mM) dissolved in the culture medium was applied as test solution to keratinocytes, and after 24 hours the culture supernatants were collected and the inflammatory cytokine IL-6 was assayed with the ELISA kit.

The subject of assay [4] is IL-8 release from keratinocytes. The assay can be described thus: ATP-induced IL-8 release from keratinocytes (ELISA). It counts as cell-based, human. As for the experimental part: as §1, §2
ATP (10 μM-1 mM) dissolved in the culture medium was applied as a test solution to keratinocytes, and after 24 hours the culture supernatants were recovered and the inflammatory cytokine IL-8 was assayed with an ELISA kit.

In assay [5] the test system is IL-1α release from keratinocytes. The assay can be described thus: ATP-induced IL-1α release from keratinocytes (ELISA). It counts as cell-based, human. The procedure: as §1, §2
ATP (10 μM-1 mM) dissolved in the culture medium was applied as a test solution to keratinocytes, and after 24 hours the culture supernatants were collected and the inflammatory cytokine IL-1α was assayed with an ELISA kit.

The test system of assay [6] is IL-6 release in ultraviolet irradiated keratinocytes. The assay can be described thus: Release of cytokine IL-6 in ultraviolet irradiated keratinocytes (ELISA). Format: cell-based, human. As for the experimental part: as §1, §2, §3
Cells were exposed to ultraviolet irradiation. After 24 h, keratinocyte cell supernatants were collected and the content of IL-6 was assayed with an ELISA kit.

The subject of assay [7] is IL-6 gene expression in keratinocytes. Description: IL-6 gene expression in keratinocytes (Taqman RT-PCR). It counts as cell-based, human. As to conditions: Taqman-PCR normalized to GAPDH. The procedure:
as §1
(§4) Keratinocytes were treated with the test solution and cells treated for 6 hours were used. Total RNA was extracted from the cells by addition of ISOGEN (Nippon Gene) according to the manufacturer's manual. cDNA was prepared with M-MLV reverse transcriptase (Life Technologies, Rockville USA), using 1 μg of RNA as template.
(§5) The gene sequence of the obtained cDNA was determined quantitatively by Taqman-PCR using an ABI PRISM 7700 Sequence Detector (Perkin Elmer) according to the manufacturer's manual, in the manner described in paragraph 11 of Japanese Unexamined Patent Publication (Kokai) No. 11-32799. The result was normalized on the basis of the expression level of human GAPDH (glyceraldehyde-3-phosphate dehydrogenase) used as an internal standard.
On the technique in general: Real-time PCR tracks product formation cycle by cycle.

The test system of the next assay is HR-1 mice. Description: Confirmation test for inflammation suppressing effect: acetone barrier disruption in a dry environment, HE staining of dorsal skin. It counts as in vivo. As to conditions: dry environment (<10% RH), acetone-treated dorsal skin, coating with 1 mM Reactive blue 2, skin collected after 48 hours, control water. As for the experimental part: After raising HR-1 mice for 48 hours in a dry environment (<10% RH), the dorsal skin was acetone-treated to disrupt its skin barrier function, and then the skin was applied with 1 mM Reactive blue 2. Control animals were applied with water. After an additional 48 hours, the dorsal skins of both animal groups were collected. The skin tissue was fixed with formaldehyde and subjected to hematoxylin-eosin (HE) staining and observed under an optical microscope.

Assay [8] has as its system IL-8 gene expression in keratinocytes. Description: IL-8 gene expression in keratinocytes (Taqman RT-PCR). It counts as cell-based, human. As to conditions: Taqman-PCR normalized to GAPDH. As for the experimental part:
as §1, §4, §5

Where [9] appears, read: pretreatment of the cells with suramin, data not shown.
Setting [10] is: Reactive blue 2 100 μM, cells treated 6 hours.
Where [11] appears, read: UVB irradiation 10 minutes after pretreatment with 100 μM Reactive blue 2, supernatant after 24 h, ELISA.
[12] abbreviates: keratinocytes pretreated with 100 μM Reactive blue 2, ATP added 10 minutes later, supernatant after 24 hours, ELISA.
Setting [13] is: keratinocytes pretreated with 30-100 μM Reactive blue 2, ATP added 10 minutes later, supernatant after 24 hours, ELISA.
Setting [14] is: ATP 30-1000 μM, concentration-dependent.
Where [15] appears, read: ATP 10 μM-1 mM, 24 hours, ELISA, in proportion to concentration.
Setting [16] is: ATP 10 μM-1 mM, 24 hours, ELISA, in proportion to ATP concentration.

In the case of `Cc1ccc(C(=O)Nc2ccc(S(=O)(=O)O)c3cc(S(=O)(=O)O)cc(S(=O)(=O)O)c23)cc1NC(=O)c1cccc(NC(=O)Nc2cccc(C(=O)Nc3cc(C(=O)Nc4ccc(S(=O)(=O)O)c5cc(S(=O)(=O)O)cc(S(=O)(=O)O)c45)ccc3C)c2)c1` [suramin], the “increase in IL-8 release produced by ultraviolet irradiation” value in assay [1] (setting [9]) is “similarly inhibited”. Besides, the “increase in TNFα release produced by ATP addition” value in [2] (setting [9]) is given as “similarly inhibited”. The “increase in IL-6 release produced by ATP addition” value in assay [3] (setting [9]) is “similarly inhibited”. In addition, the “increase in IL-8 release produced by ATP addition” value in assay [4] (setting [9]) was “similarly inhibited”. For the same compound, the “increase in IL-1α release produced by ATP addition” value in [5] (setting [9]) is “similarly inhibited”. Moreover, the “increase in IL-6 release produced by ultraviolet irradiation” value in [6] (setting [9]) is on record as “similarly inhibited”.

As to `Nc1c(S(=O)(=O)O)cc(Nc2ccc(Nc3nc(Cl)nc(Nc4cccc(S(=O)(=O)O)c4)n3)c(S(=O)(=O)O)c2)c2c1C(=O)c1ccccc1C2=O` [Reactive blue 2], the “ATP-induced increase in IL-6 gene expression” value in assay [7] (setting [10]) is reported as “significantly inhibited”. For the same compound, the “ultraviolet irradiation-induced increase in IL-8” value in [1] (setting [11]) was “significantly inhibited”. Also, the “ATP-induced increase in TNFα” value in assay [2] (setting [12]) is recorded as “significantly inhibited”. In addition, the “ATP-induced increase in IL-6” value in [3] (setting [13]) is reported as “significantly inhibited”. For the same compound, the “ATP-induced increase in IL-8” value in assay [4] (setting [13]) was “significantly inhibited”. In assay [5] (setting [12]), the “ATP-induced increase in IL-1α” value was “significantly inhibited”. In addition, the “epidermal hyperplasia after barrier disruption (HE staining)” value with HR-1 mice is listed as “inhibits the epidermal hyperplasia”. Moreover, the “ultraviolet irradiation-induced increase in IL-6” value in assay [6] (setting [11]) is on record as “significantly inhibited”. The “ATP-induced increase in IL-8 gene expression” value in assay [8] (setting [10]) is “significantly inhibited”.

`Nc1ncnc2c1ncn2[C@@H]1O[C@H](COP(=O)(O)OP(=O)(O)OP(=O)(O)O)[C@@H](O)[C@H]1O` [ATP, adenosine triphosphate]: the “IL-6 expression over non-stimulated cells (controls)” value in assay [7] (setting [14]) was “significantly increased”. For the same compound, the “TNFα in culture supernatant after addition of ATP” value in [2] (setting [15]) was “significant increase”. Besides, the “IL-6 in culture supernatant after addition of ATP” value in assay [3] (setting [16]) was “significant increase”. In assay [4] (setting [16]), the “IL-8 in culture supernatant after addition of ATP” value is “significant increase”. Also, the “IL-1α in culture supernatant after addition of ATP” value in [5] (setting [15]) was “significant increase”. Further, the “IL-8 expression over non-stimulated cells (controls)” value in [8] (setting [14]) is reported as “significantly increased”.
